Results taken from publication PMC5766233, “Ternary copper(II) complex: NCI60 screening, toxicity studies, and evaluation of efficacy in xenograft models of nasopharyngeal carcinoma” (PLoS ONE, 2018).

How the values were obtained:
[1] = tested on: CYP1A; experiment: Cytochrome P450 induction assay in rat primary hepatocytes, CYP1A; format: in vitro ADME; details: for Fold induction CYP1A: 3 days; for % of positive control CYP1A: positive control 3-methyl cholanthrene 1.0 μM
Text: %Activity=(averagearearatiooftreated/averagearearatioofbasalcontrol)x100

[2] = biological target: T1, CYP 2D6 (Homo sapiens, UniProt P10635); experiment: CYP450 inhibition assay, pooled human liver microsomes; format: in vitro ADME; details: probe dextromethorphan
T1 construct: tissue Sekisui Xeno Tech, LLC; host or cells: pooled human liver microsomes
Experimental: In the CYP inhibition assay, human liver microsomes were incubated with the Cu(II) complex or reference standard. The inhibitory effects of these compounds were investigated against the major CYP isoforms namely 1A2, 2C9, 2C19, 2D6, 2B6, 2C8 and 3A4 with their respective isoform probe substrates in one reaction mixture (pooled probe substrate format using LC-MS/MS).
Pooled human liver microsomes (Sekisui Xeno Tech, LLC., Kansas City, KS, USA) were incubated with different concentrations of Cu(II) complex or reference standards in buffer containing 0.1% DMSO for 10 min at 37°C and the residual enzyme activity was measured using pooled probe substrates method by pooled LC-MS/MS. Briefly, incubation mixtures were prepared in a total volume of 200 μL with final component concentrations as follows: 0.1 M potassium phosphate buffer (pH 7.4), 1.5 mM NADPH, and 0.25 mg/ml HLM. […] After 20 min of incubation, the reactions were terminated by addition of 200 μL ice-cold acetonitrile (Rankem, Avantor Performance Materials India Limited, Andhra Pradesh, India) containing telmisartan and carbamazepine as internal standards (all probe substrates and standards were from Sigma Aldrich). Each reaction mixture was centrifuged at 3,500 rpm for 5 min and the supernatant was subjected to LC-MS/MS analysis. The percent inhibition was calculated using the following equation: %Inhibition=100‑[(activityintestwells/activityinbasalcontrolwells)×100]

[3] = Acute in vivo toxicity, single dose; parameters: species or system NOD scid gamma female mice
Experimental: Acute toxicity caused by the complex was tested on a method modified from the NCI single dose method. The experiment was performed to find the maximum tolerated dose (MTD) for the calculation of doses for repeat-dose animal testing; the experiment was designed to minimize both the use of compound tested and the number of animals to be sacrificed. […] Five doses, viz. 35.0, 17.5, 12.5, 7.5 and 5.5 mg/kg body weight of the Cu(II) complex, were injected intraperitoneally as single doses into each mouse respectively and the mice were observed daily for 14 days for drug-induced toxicity. The findings of the acute toxicity study are listed in S1 Table.
Determination of acute toxicity was carried out using a method adapted from the NCI [43]. Five mice were randomly separated into five cages. Five doses, i.e. 35.0, 17.5, 12.5, 7.5 and 5.5 mg/kg of body weight of Cu(II) complex were injected intraperitoneally as a single dose into each mouse respectively. After the drug administration, mice were observed hourly for any signs of toxicity, mortality, changes in general behavior and physical activities for the first 4 hours, then 4 hourly for 1 day followed by daily observation for 2 weeks. The signs which were monitored and recorded during this study included hypoactivity, lethargy, hypoapnoea, abnormal gait and posture, tremors, arching and rolling, convulsions, salivation and diarrhea. Mouse death during the period of observation was considered as death due to toxic effects of the test compound. The lethal dose and maximum tolerated dose (MTD) were determined during this study. At the end of the experiment, the survivors were sacrificed for necropsy. Gross and histopathological examinations were performed on the major internal organs including the heart, lung, liver, kidney and spleen.

[4] = tested on: HK1 xenograft; experiment: In vivo efficacy in HK1 xenograft model; parameters: species or system NOD scid gamma female mice
Experimental: Recognizing the relative lack of treatment options for advanced NPC compared to other major cancers in Malaysia and based on our previous finding of the anticancer activity against NPC cells, we proceeded to validate the anticancer properties of the Cu(II) complex in vivo using NPC xenograft models. To test the compound in vivo in the preclinical models, two pilot studies were carried out using the Cu(II) complex. First, the effects of the Cu(II) complex were investigated on HK1 xenograft bearing mice at three different dosage regimens (4, 6 and 8 mg/kg). […] Even though treatment with Cu(II) complex at 8 mg/kg every other day up to 3 doses was effective, 2 out of 7 mice were found deadand the experiment had to be terminated.
2.0 x 10^6 HK1 or C666-1-GFP-Luc2 cells in 100 μl RPMI media mixed with matrigel (BD Matrigel Basement Membrane Matrix; BD Biosciences, Bedford, MA, USA) was inoculated subcutaneously into the right lower flank of the NSG mice. Tumor growth was monitored and measured every other day using a digital caliper (Mitutoyo America Corporation, Aurora, Illinois, USA) until they reached 100–250 mm^3. Then, the mice were randomly assigned into treatment groups. The mice bearing HK1 xenograft tumor were divided into 3 treatment groups and a control (normal saline) group. The first batch received normal saline (one injection daily for 5 days), 6 mg/kg (one injection daily for 5 days) and 8 mg/kg (one injection every other day for 3 doses) of Cu(II) complex while the second batch received normal saline (one injection daily for 4 days), 4 mg/kg (one injection daily for 4 days), 6 mg/kg (one injection daily for 4 days) and 8 mg/kg (one injection every other day for 2 doses) of Cu(II) complex via intraperitoneal route.

[5] = tested on: cervical, ovarian, lung, breast, lymphoma, leukemia, colorectal carcinoma and NPC cell lines; parameters: method as in PMID 24549332; details: 24 h; HeLa, SKOV3, A549, PC9, MCF7, Namalwa, HL60, SW480, SW48, HCT118, HONE1, HK1, C666-1; cited from earlier work

T1 sequence (P10635 whole entry): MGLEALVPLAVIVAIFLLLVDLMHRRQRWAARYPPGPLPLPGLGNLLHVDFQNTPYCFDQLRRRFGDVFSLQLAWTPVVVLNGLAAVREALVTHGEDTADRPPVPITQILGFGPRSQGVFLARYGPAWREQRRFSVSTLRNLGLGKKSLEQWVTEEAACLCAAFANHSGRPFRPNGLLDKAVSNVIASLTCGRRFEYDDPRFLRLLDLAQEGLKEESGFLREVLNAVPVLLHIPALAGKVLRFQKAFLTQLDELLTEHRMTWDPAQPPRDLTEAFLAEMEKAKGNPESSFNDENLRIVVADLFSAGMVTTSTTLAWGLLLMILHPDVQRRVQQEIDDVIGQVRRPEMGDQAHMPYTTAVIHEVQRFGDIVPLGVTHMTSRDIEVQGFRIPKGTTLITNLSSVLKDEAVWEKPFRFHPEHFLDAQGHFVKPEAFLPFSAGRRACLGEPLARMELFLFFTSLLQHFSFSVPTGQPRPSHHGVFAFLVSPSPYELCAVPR

With `CC(C)(N)C(=O)[O-].O.O=[N+]([O-])[O-].[Cu+2].c1cnc2c(c1)ccc1cccnc12` [Cu(II) complex, [Cu(phen)(C-dmg)(H2O)]NO3] the “Fold induction CYP1A” value ([1]; 0.1 μM) was 1.1, the “% of positive control CYP1A” value ([1]; 0.1 μM) was 10.1% and the “Fold induction CYP1A” value ([1]; 0.3 μM) was 1.4. The “% of positive control CYP1A” value ([1]; 0.3 μM) was 13.0%, the “Fold induction CYP1A” value ([1]; 1.0 μM) was 0.8 and the “% of positive control CYP1A” value ([1]; 1.0 μM) was 7.4%. For the same compound, the “induction, % of positive control, CYP1A” value ([1]; 0.1-1.0 μM) was < 13%, the IC50 [2] was 10.2 µM and the Mortality ([3]; 5.5 mg/kg single ip dose) was “No”. The “Observation of mice behavioral and physical changes (after injection)” value ([3]; 5.5 mg/kg single ip dose) was “No clinical signs occurred. It showed normal behavior patterns when provoked”, the “Observation of mice behavioral and physical changes (later)” value ([3]; 5.5 mg/kg single ip dose) was “Normal behavior and activities” and the Mortality ([3]; 7.5 mg/kg single ip dose) was “No”. For the same compound, the “Observation of mice behavioral and physical changes (after injection)” value ([3]; 7.5 mg/kg single ip dose) was “No abnormal clinical signs occurred. It showed normal behavior patterns when provoked”, the “Observation of mice behavioral and physical changes (later)” value ([3]; 7.5 mg/kg single ip dose) was “Normal behavior and activities” and the Mortality ([3]; 12.5 mg/kg single ip dose) was “No”. For the same compound, the “Observation of mice behavioral and physical changes (after injection)” value ([3]; 12.5 mg/kg single ip dose) was “After drug injection, mouse stayed at corner of its cage but resumed its normal behavior and physical activities after 45 min. Body movement happened. It showed normal behavior patterns when provoked”, the “Observation of mice behavioral and physical changes (later)” value ([3]; 12.5 mg/kg single ip dose) was “Normal behavior and activities” and the Mortality ([3]; 17.5 mg/kg single ip dose) was “No”. The “Observation of mice behavioral and physical changes (after injection)” value ([3]; 17.5 mg/kg single ip dose) was “After drug injection, mouse stayed at corner of the cage but resumed its normal behavior and physical activities after 45 min. Body movement happened. It showed normal behavior patterns when provoked”, the “Observation of mice behavioral and physical changes (later)” value ([3]; 17.5 mg/kg single ip dose) was “Normal behavior and activities” and the “Histopathological examination, spleen” value ([3]; 35 mg/kg single ip dose) was “increased in multinucleated giant cells”. For the same compound, the Mortality ([3]; 35.0 mg/kg single ip dose) was “Yes”, the “Observation of mice behavioral and physical changes (after injection)” value ([3]; 35.0 mg/kg single ip dose) was “Mouse was immobile and staying at one corner of the cage about 30 min after drug injection. After 0.5, 1, 2, 3 & 4 h, it was still immobile. Unresponsive to provocation” and the “Observation of mice behavioral and physical changes (later)” value ([3]; 35.0 mg/kg single ip dose) was “It was found dead on Day 2; blood stained urine noted”. The MTD ([3]; single dose treatment, intraperitoneal, estimated) was 17.5 mg/kg, the LD50 ([3]; single intraperitoneal dose, estimated) was 26.25 mg/kg and the “Histopathological examination, all organs examined” value ([3]; single ip doses other than 35 mg/kg) was “no significant morphological changes”. The mice found dead ([4]; 8 mg/kg every other day up to 3 doses) was 2 out of 7, the tumor growth ([4]; 4, 6 and 8 mg/kg ip) was “significantly inhibited the growth of HK1 tumor” and the “tolerability / body weight” value ([4]; 4 and 6 mg/kg dose regimens) was “well tolerated with no significant body weight loss”. The “Histopathological examination of heart, liver, kidney and lung” value ([4]; all the groups) was “did not show any remarkable changes”, the “weight of vital organs” value ([4]; all treatment groups vs control) was “not significantly affected” and the IC50 [5] was 1.7 to 19 µM.
